Here are results for 15 compounds from US12391671B2, “Allosteric EGFR inhibitors and methods of use thereof” (Dana-Farber Cancer Institute, Inc., priority 2019, dated 2025).

Assay [1] concerns EGFR mutant L858R/T790M Ba/F3 cells. In words: Ba/F3 cell proliferation model (Cell Titer Glo), EGFR L858R/T790M. It is filed as cell-based, murine. Particulars: 72 hours. Summed up: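 Retrovirally transduced Ba/F3 cells exposed 72 h to compound alone or with 1 μg/mL cetuximab, triplicate points, repeated at least three times. Viability by Cell Titer Glo luminescence (ATP); curves fitted by non-linear sigmoidal dose-response regression.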
(ATP-based viability assays read luminescence as a measure of living cells.)

Another assay deals with EGFR L858R/T790M (Homo sapiens (Human), UniProt P00533, L858R/T790M). Nature of the assay: HTRF-based EGFR biochemical assay (L858R/T790M). To be noted: 100 μM ATP, enzyme 0.02 nM. Summed up: (§1)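 Mutant EGFR (L858R 0.1 nM, L858R/T790M 0.02 nM) preincubated 30 min with compounds at room temperature in HEPES pH 7.0 buffer with Mg2+/Mn2+, then reacted 20 min with 1 μM biotinylated tyrosine kinase peptide and 100 μM ATP. Phosphorylation read by HTRF (Eu-cryptate anti-phosphotyrosine/streptavidin-XL665, 665/620 nm) after EDTA quench.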

A further assay addresses EGFR L858R (Homo sapiens (Human), UniProt P00533, L858R). In words: HTRF-based EGFR biochemical assay (L858R). To be noted: 100 μM ATP, enzyme 0.1 nM. The procedure, abridged: as §1
Background: In TR-FRET formats the signal depends on donor and acceptor labels being close together.

The subject of assay [2] is EGFR mutant L858R Ba/F3 cells. Nature of the assay: Ba/F3 cell proliferation model (Cell Titer Glo), EGFR L858R. Format: cell-based, murine. To be noted: 72 hours. From the text: Example 26: Ba/F3 Cell Proliferation Models
The EGFR mutant L858R and L858R/T790M Ba/F3 cells have been previously described (Zhou, W., et al. Nature 462, 2009, 1070-1074). All cell lines were maintained in RPM 1640 (Cellgro; Mediatech Inc., Herndon. CA) supplemented with 10% FBS, 100 units/mL penicillin, 100 units/mL streptomycin. The EGFR I941R mutation was introduced via site directed mutagenesis using the Quick Change Site-Directed Mutagenesis kit (Stratagene; La Jolla, CA) according to the manufacturer's instructions. All constructs were confirmed by DNA sequencing. The constructs were shuttled into the retroviral vector JP1540 using the Cre-recombination system (Agilent Technologies, Santa Clara, CA). Ba/F3 cells were then infected with retrovirus per standard protocols, as described previously (Zhou, et al, Nature 2009). Stable clones were obtained by selection in puromycin (2 μg/ml).
Growth and inhibition of growth was assessed by the Cell Titer Glo® assay (Promega, Madison, WI) and was performed according to the manufacturer's instructions. The Cell Titer Glo® assay is a luminescence-based method used to determine the number of viable cells based on quantitation of the ATP present, which is directly proportional to the amount of metabolically active cells present. Ba/F3 cells of different EGFR genotypes were exposed to compounds as a single agent or in combination with 1 μg/mL cetuximab for 72 hours and the number of cells used per experiment was determined empirically as has been previously established (Zhou, et al., Nature 2009). All experimental points were set up in triplicates in 384-well plates and all experiments were repeated at least three times. […] The curves were fitted using a non-linear regression model with a sigmoidal dose response.

The mark [3] stands for this setting: Mus musculus, BaF3, single agent, read-out: Cell IC50 BaF3 EGFR L858R/T790M.
Where [4] appears, read: in combination with 1 μg/mL cetuximab, read-out: Cell IC50 BaF3 EGFR L858R/T790M (+cetux.).
Setting [5] is: Mus musculus, BaF3, single agent, read-out: Cell IC50 BaF3 EGFR L858R.
[6] abbreviates: in combination with 1 μg/mL cetuximab, read-out: Cell IC50 BaF3 EGFR L858R (+cetux.).

Each structure is given as a SMILES string. Structures can show the parent of a compound that is named as a salt. Where two headings read alike, the source gives them in different places.

EGFR L858R, sequence (P00533 25-1210 L858R): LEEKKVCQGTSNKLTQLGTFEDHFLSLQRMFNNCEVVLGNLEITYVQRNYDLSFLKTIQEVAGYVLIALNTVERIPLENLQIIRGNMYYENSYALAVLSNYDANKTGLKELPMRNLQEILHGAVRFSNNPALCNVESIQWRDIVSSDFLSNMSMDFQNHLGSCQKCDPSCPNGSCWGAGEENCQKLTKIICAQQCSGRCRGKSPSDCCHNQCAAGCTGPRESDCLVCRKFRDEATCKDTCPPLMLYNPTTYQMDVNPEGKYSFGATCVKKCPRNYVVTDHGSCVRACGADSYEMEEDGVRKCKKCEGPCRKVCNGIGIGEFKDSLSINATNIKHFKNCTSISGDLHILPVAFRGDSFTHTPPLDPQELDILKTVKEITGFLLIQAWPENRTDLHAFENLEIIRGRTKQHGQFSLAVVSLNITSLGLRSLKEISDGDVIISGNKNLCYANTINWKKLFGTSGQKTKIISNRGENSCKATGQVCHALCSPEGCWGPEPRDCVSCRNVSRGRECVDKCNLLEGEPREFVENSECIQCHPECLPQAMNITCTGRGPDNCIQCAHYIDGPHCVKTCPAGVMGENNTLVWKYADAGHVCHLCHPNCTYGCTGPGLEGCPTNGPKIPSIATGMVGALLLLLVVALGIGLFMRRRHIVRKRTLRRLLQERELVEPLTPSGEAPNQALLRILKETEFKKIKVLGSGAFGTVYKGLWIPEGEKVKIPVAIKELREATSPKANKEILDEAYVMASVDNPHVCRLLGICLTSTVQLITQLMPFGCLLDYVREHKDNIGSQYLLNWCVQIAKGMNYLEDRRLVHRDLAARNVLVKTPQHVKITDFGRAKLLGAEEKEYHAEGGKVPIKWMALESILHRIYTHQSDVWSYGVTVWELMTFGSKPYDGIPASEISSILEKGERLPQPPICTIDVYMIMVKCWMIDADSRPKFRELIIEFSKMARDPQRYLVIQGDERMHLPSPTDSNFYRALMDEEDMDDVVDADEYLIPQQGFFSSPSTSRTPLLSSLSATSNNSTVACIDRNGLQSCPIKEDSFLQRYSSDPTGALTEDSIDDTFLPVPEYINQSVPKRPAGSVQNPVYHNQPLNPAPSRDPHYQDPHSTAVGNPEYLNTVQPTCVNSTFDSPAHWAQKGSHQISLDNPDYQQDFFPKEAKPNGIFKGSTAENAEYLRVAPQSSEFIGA
EGFR L858R/T790M, sequence (P00533 25-1210 T790M/L858R): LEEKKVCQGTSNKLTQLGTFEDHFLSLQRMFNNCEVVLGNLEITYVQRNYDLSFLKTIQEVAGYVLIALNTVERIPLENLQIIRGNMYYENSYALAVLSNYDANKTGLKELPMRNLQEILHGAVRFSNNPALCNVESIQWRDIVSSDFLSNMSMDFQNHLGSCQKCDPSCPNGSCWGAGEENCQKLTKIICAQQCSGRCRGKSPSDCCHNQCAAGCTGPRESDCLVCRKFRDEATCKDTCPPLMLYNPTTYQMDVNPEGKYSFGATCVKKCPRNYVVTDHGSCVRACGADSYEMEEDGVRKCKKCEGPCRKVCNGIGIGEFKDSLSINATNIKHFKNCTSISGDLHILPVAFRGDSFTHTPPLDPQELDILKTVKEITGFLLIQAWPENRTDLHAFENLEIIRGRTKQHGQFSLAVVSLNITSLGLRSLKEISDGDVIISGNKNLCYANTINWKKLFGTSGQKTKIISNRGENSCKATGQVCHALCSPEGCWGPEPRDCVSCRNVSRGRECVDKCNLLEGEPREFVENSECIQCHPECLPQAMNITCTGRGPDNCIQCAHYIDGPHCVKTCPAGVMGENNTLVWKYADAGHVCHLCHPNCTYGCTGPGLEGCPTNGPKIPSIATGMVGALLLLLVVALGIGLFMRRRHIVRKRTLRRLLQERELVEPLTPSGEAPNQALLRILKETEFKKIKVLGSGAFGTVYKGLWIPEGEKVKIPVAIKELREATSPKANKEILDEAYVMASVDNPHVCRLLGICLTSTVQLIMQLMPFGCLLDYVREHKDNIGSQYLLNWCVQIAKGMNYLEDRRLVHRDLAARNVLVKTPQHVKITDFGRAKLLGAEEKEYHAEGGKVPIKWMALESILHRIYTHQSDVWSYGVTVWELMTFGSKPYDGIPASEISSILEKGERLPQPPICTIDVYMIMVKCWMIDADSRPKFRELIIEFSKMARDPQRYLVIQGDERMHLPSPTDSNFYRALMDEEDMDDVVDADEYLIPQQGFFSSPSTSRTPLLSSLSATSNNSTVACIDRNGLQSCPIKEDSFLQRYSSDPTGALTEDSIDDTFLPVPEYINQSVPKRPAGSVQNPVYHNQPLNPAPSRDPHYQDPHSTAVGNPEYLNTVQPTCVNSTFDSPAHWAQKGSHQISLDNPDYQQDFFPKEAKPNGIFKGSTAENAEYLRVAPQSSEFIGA

As to `O=C1c2cc(-c3ccc(OC4CNC4)cc3)ccc2CN1C(c1nc2ccccc2[nH]1)c1cc(F)ccc1O` (stereo not drawn) [Compound 091, 6-[4-(azetidin-3-yloxy)phenyl]-2-[1H-benzimidazol-2-yl-(5-fluoro-2-hydroxy-phenyl)methyl]isoindolin-1-one; dihydrochloride], the IC50 amounted to 1.05 µM in assay [1] (setting [3]); 0.12 µM in assay [1] (setting [4]); 0.006 µM at EGFR L858R/T790M; 0.012 µM at EGFR L858R; 1.78 µM in assay [2] (setting [5]).
As to `CN1CCC(c2ccc(-c3cc(F)c4cn(C(c5nc6ccccc6[nH]5)c5cc(F)ccc5O)nc4c3)cc2)CC1` (stereo not drawn) [Compound 119, 2-((1H-Benzo[d]imidazol-2-yl)(4-fluoro-6-(4-(1-methylpiperidin-4-yl)phenyl)-2H-indazol-2-yl)methyl)-4-fluorophenol; trifluoroacetate], the IC50 in assay [1] (setting [3]) turned out to be 0.42 µM; against EGFR L858R/T790M it was 0.003 µM; on EGFR L858R, 0.011 µM; in assay [2] (setting [5]), 0.78 µM.
Consider `CN1CCC(c2ccc(-c3cc(F)c4c(=O)n(C(c5nc6ccccc6[nH]5)c5cc(F)ccc5O)ccc4c3)cc2)CC1` (stereo not drawn) [Compound 070, 2-[1H-benzimidazol-2-yl-(5-fluoro-2-hydroxy-phenyl)methyl]-8-fluoro-6-[4-(1-methyl-4-piperidyl)phenyl]isoquinolin-1-one], for which the IC50 in assay [1] (setting [3]) came to 0.07 µM; in assay [1] (setting [4]), 0.005 µM; against EGFR L858R/T790M, 0.001 µM; on EGFR L858R it was 0.004 µM; in assay [2] (setting [5]), 0.16 µM.
On the same counts, the results for `CN1CCC(c2ccc(-c3ccc4cn(C(c5nc6ccccc6[nH]5)c5cc(F)ccc5O)nc4c3Cl)cc2)CC1` (stereo not drawn) [Compound 092, 2-[1H-benzimidazol-2-yl-[7-chloro-6-[4-(1-methyl-4-piperidyl)phenyl]-indazol-2-yl]methyl]-4-fluoro-phenol; dihydrochloride] are 0.1 µM, 0.01 µM, 0.001 µM, 0.004 µM and 0.82 µM.
As for `CN1CCC(c2ccc(-c3ccc4c(c3F)C(=O)N(C(c3nc5ccccc5[nH]3)c3cc(F)ccc3O)C4)cc2F)CC1` (stereo not drawn) [Compound 080, 2-[1H-benzimidazol-2-yl-(5-fluoro-2-hydroxy-phenyl)methyl]-7-fluoro-6-[3-fluoro-4-(1-methyl-4-piperidyl)phenyl]isoindolin-1-one; dihydrochloride], the IC50 in assay [1] (setting [3]) worked out at 0.21 µM; in assay [1] (setting [4]), 0.01 µM; on EGFR L858R/T790M, 0.0006 µM; at EGFR L858R it was 0.003 µM; in assay [2] (setting [5]), 0.5 µM.
For the compound `CN1CCC(c2ccc(-c3cc4nn(C(c5nc6ccccc6[nH]5)c5cc(F)ccc5O)cc4cc3F)cc2)CC1` (stereo not drawn) [Compound 118, 2-((1H-Benzo[d]imidazol-2-yl)(5-fluoro-6-(4-(1-methylpiperidin-4-yl)phenyl)-2H-indazol-2-yl)methyl)-4-fluorophenol], the IC50 is 1.31 µM in assay [1] (setting [3]), 0.006 µM on EGFR L858R/T790M, 0.016 µM at EGFR L858R and 4.08 µM in assay [2] (setting [5]).
Take `Cc1c(-c2ccc(C3CCN(C)CC3)cc2)ccc2c1C(=O)N(C(c1nc3ccccc3[nH]1)c1cc(F)ccc1O)C2` (stereo not drawn) [Compound 082, 2-[1H-benzimidazol-2-yl-(5-fluoro-2-hydroxy-phenyl)methyl]-7-methyl-6-[4-(1-methyl-4-piperidyl)phenyl]isoindolin-1-one; dihydrochloride]: the IC50 worked out at 0.22 µM in assay [1] (setting [3]); 0.02 µM in assay [1] (setting [4]); 0.0006 µM against EGFR L858R/T790M; 0.003 µM on EGFR L858R; 0.67 µM in assay [2] (setting [5]).
For `CN1CCC(c2ccc(-c3cc(F)c4c(=O)n(C(c5ccccc5)c5nc6ccccc6[nH]5)ccc4c3)cc2)CC1` (stereo not drawn) [Compound 064, 2-[1H-benzimidazol-2-yl(phenyl)methyl]-8-fluoro-6-[4-(1-methyl-4-piperidyl)phenyl]-isoquinolin-1-one; dihydrochloride], in that order: 0.22 µM, 0.02 µM, 0.02 µM, 0.031 µM and 0.67 µM.
On the same counts, the results for `COc1c(-c2ccc(C3CCN(C)CC3)cc2)ccc2ncn(C(c3nc4ccccc4[nH]3)c3cc(F)ccc3O)c(=O)c12` (stereo not drawn) [Compound 077, 3-[1H-benzimidazol-2-yl-(5-fluoro-2-hydroxy-phenyl)methyl]-5-methoxy-6-[4-(1-methyl-4-piperidyl)phenyl]quinazolin-4-one;dihydrochloride] are 0.45 µM, 0.05 µM, 0.002 µM, 0.002 µM and 0.91 µM.
`CN1CCC(c2ccc(-c3ccc4ncn(C(c5nc6ccccc6[nH]5)c5cc(F)ccc5O)c(=O)c4c3C(F)(F)F)cc2)CC1` (stereo not drawn) [Compound 076, 3-[1H-benzimidazol-2-yl-(5-fluoro-2-hydroxy-phenyl)methyl]-6-[4-(1-methyl-4-piperidyl)phenyl]-5-(trifluoromethyl)quinazolin-4-one; dihydrochloride]: the IC50 in assay [1] (setting [3]) was determined as 0.14 µM; in assay [1] (setting [4]) it was 0.03 µM; at EGFR L858R/T790M, 0.002 µM; at EGFR L858R, 0.002 µM; in assay [2] (setting [5]), 0.09 µM.
In the case of `CN1CCC(c2ccc(-c3ccc4c(c3)C(=S)N(C(c3nc5ccccc5[nH]3)c3cc(F)ccc3O)C4)cc2)CC1` (stereo not drawn) [Compound 078, 2-[1H-benzimidazol-2-yl-(5-fluoro-2-hydroxy-phenyl)methyl]-6-[4-(1-methyl-4-piperidyl)phenyl]isoindoline-1-thione;dihydrochloride], the IC50 in assay [1] (setting [3]) was found to be 0.31 µM; in assay [1] (setting [4]) it was 0.02 µM; at EGFR L858R/T790M it was 0.001 µM; against EGFR L858R, 0.003 µM; in assay [2] (setting [5]), 0.69 µM.
For the compound `CN1CCC(c2ccc(-c3ccc4c(=O)n(C(c5nc6ccccc6[nH]5)c5cc(F)ccc5O)ccc4c3)cc2)CC1` (racemic) [Compound 069, Rac-2-(1H-1,3-benzodiazol-2-yl)(5-fluoro-2-hydroxyphenyl)methyl]-6-[4-(1-methylpiperidin-4-yl)phenyl]-1,2-dihydroisoquinolin-1-one], the IC50 is 0.52 µM in assay [1] (setting [3]); 0.01 µM in assay [1] (setting [4]); 0.005 µM at EGFR L858R/T790M; 0.009 µM on EGFR L858R; 0.36 µM in assay [2] (setting [5]).
Take `CN1CCC(c2ccc(-c3ccc4ncn(C(c5nc6ccccc6[nH]5)c5cc(F)ccc5O)c(=O)c4c3)cc2)CC1` (stereo not drawn) [Compound 006, 3-[1H-Benzimidazol-2-yl-(5-fluoro-2-hydroxy-phenyl)methyl]-6-[4-(1-methyl-4-piperidyl)-phenyl]quinazolin-4-one;hydrochloride]: the IC50 in assay [1] (setting [3]) was found to be 0.28 µM; in assay [1] (setting [4]), 0.005 µM; against EGFR L858R/T790M it was 0.0005 µM; at EGFR L858R, 0.002 µM; in assay [2] (setting [5]) it was 1.1 µM; in assay [2] (setting [6]), 0.06 µM.
In the case of `CN1CCC(c2ccc(-c3ccc4ncn(C(c5nc6ccccc6[nH]5)c5cc(F)ccc5O)c(=O)c4n3)cc2)CC1` (stereo not drawn) [Compound 009, 3-((1H-Benzo[d]imidazol-2-yl)(5-fluoro-2-hydroxyphenyl)methyl)-6-(4-(1-methylpiperidin-4-yl)phenyl)pyrido[3,2-d]pyrimidin-4(3H)-one 2,2,2-trifluoroacetate], the IC50 in assay [1] (setting [3]) came to 0.94 µM; in assay [1] (setting [4]), 0.02 µM; against EGFR L858R/T790M it was 0.0004 µM; against EGFR L858R it was 0.003 µM; in assay [2] (setting [5]), 3.89 µM; in assay [2] (setting [6]), 0.18 µM.
Turning to `CN1CCC(Oc2ccc(-c3ccc4c(c3)C(=O)N(C(c3nc5ccccc5[nH]3)c3cc(F)ccc3O)C4)cc2)CC1` (stereo not drawn) [Compound 090, 2-[1H-benzimidazol-2-yl-(5-fluoro-2-hydroxy-phenyl)methyl]-6-[4-[(1-methyl-4-piperidyl)oxy]phenyl]isoindolin-1-one], the IC50 in assay [1] (setting [3]) worked out at 0.86 µM; in assay [1] (setting [4]) it was 0.02 µM; at EGFR L858R/T790M it was 0.008 µM; on EGFR L858R, 0.011 µM; in assay [2] (setting [5]) it was 1.43 µM.
